Test results: patent US8802597B2, “Herbicidal pyrimidines” (E I du Pont de Nemours and Company, priority 2003, dated 2014)

Assays:
Assay type in all cases: in vivo
[1] = test system: umbrella sedge (Cyperus difformis); experiment: Test C flooded paddy test; settings: Flood, scale 0 to 100
Method in brief: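 Plants were grown to the 2-leaf stage in a flooded paddy, treated, and kept in a greenhouse with untreated controls for 12 to 14 days. Injury was then scored visually against controls on a 0–100 scale, where 0 means no effect and 100 complete control.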

[2] = test system: water seeded rice seedlings (Oryza sativa cv. ‘Japonica-M202’); experiment: Test E flooded paddy water application; settings: Flood, 21 days, scale 0 to 100 (0 no effect, 100 complete control)
Method in brief: (§1)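 Response scored visually on a 0–100 scale (100 = complete control) at 21 days against untreated pots. Treatment was into paddy water 3 cm deep over silt loam, with plants at the 2.0–2.5-leaf stage, grown under 16-h light at 29.5/26.7 °C day/night.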

[3] = test system: smallflower umbrella sedge (Cyperus difformis); experiment: Test E flooded paddy water application; settings: Flood, 21 days, scale 0 to 100 (0 no effect, 100 complete control)
Method in brief: as §1

[4] = test system: rice flatsedge (Cyperus iria); experiment: Test E flooded paddy water application; settings: Flood, 21 days, scale 0 to 100 (0 no effect, 100 complete control)
Method in brief: as §1

[5] = test system: barnyardgrass (Echinochloa crus-galli); experiment: Test E flooded paddy water application; settings: Flood, 21 days, scale 0 to 100 (0 no effect, 100 complete control)
Method in brief: as §1

[6] = test system: transplanted rice seedlings (Oryza sativa cv. ‘Japonica-M202’); experiment: Test E flooded paddy water application; settings: Flood, 21 days, scale 0 to 100 (0 no effect, 100 complete control)
Method in brief: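 Greenhouse pots of Tama silt loam with weeds and rice at 2.0–2.5-leaf stage, flooded to 3 cm; compounds applied directly into paddy water, depth maintained. Visual rating versus untreated controls after 21 days, 0 (no effect) to 100 (complete control); 29.5/26.7 °C, 16-h photoperiod.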

[7] = test system: ducksalad (Heteranthera limosa); experiment: Test E flooded paddy water application; settings: Flood, 21 days, scale 0 to 100 (0 no effect, 100 complete control)
Method in brief: as §1

[8] = test system: late watergrass (Echinochloa oryzicola); experiment: Test E flooded paddy water application; settings: Flood, 21 days, scale 0 to 100 (0 no effect, 100 complete control)
Method in brief: as §1

[9] = test system: purple redstem (Ammannia coccinea); experiment: Test E flooded paddy water application; settings: Flood, 21 days, scale 0 to 100 (0 no effect, 100 complete control)
Method in brief: as §1

[10] = test system: bearded (brdd.) sprangletop (Leptochloa fusca ssp. fascicularis); experiment: Test E flooded paddy water application; settings: Flood, 21 days, scale 0 to 100 (0 no effect, 100 complete control)
Method in brief: as §1

[11] = test system: junglerice (Echinochloa colona); experiment: Test E flooded paddy water application; settings: Flood, 21 days, scale 0 to 100 (0 no effect, 100 complete control)
Method in brief: as §1

## CNc1nc(C2CC2)nc(C(=O)OC)c1Br [Compound 5]
[1]; 62 g ai/ha
  Plant response rating, Sedge, Umbrella: 0
[1]; 125 g ai/ha
  Plant response rating, Sedge, Umbrella: 0
[1]; 250 g ai/ha
  Plant response rating, Sedge, Umbrella: 0
[1]; 500 g ai/ha
  Plant response rating, Sedge, Umbrella: 0

## COC(=O)c1nc(C2CC2)nc(N=CN(C)C)c1Br [Compound 19]
[1]; 62 g ai/ha
  Plant response rating, Sedge, Umbrella: 20
[1]; 125 g ai/ha
  Plant response rating, Sedge, Umbrella: 50
[1]; 250 g ai/ha
  Plant response rating, Sedge, Umbrella: 50
[1]; 500 g ai/ha
  Plant response rating, Sedge, Umbrella: 50

## CCCCOC(=O)c1nc(C2CC2)nc(N)c1Br [Compound 16]
[1]; 125 g ai/ha
  Plant response rating, Sedge, Umbrella: 0
[1]; 250 g ai/ha
  Plant response rating, Sedge, Umbrella: 50
[1]; 500 g ai/ha
  Plant response rating, Sedge, Umbrella: 55

## CCOC(=O)c1nc(-c2ccc(Cl)cc2)nc(N)c1Br [Compound 37]
[2]; 32 g ai/ha
  Rice, Water Seeded plant response rating: 0
[2]; 64 g ai/ha
  Rice, Water Seeded plant response rating: 0
[2]; 125 g ai/ha
  Rice, Water Seeded plant response rating: 0
[2]; 250 g ai/ha
  Rice, Water Seeded plant response rating: 0
[2]; 16 g ai/ha
  Plant response rating, Rice, Water Seeded: 0
[3]; 32 g ai/ha
  Sedge, Umbrella plant response rating: 50
[3]; 64 g ai/ha
  Sedge, Umbrella plant response rating: 50
[3]; 125 g ai/ha
  Sedge, Umbrella plant response rating: 65
[3]; 250 g ai/ha
  Sedge, Umbrella plant response rating: 95
[3]; 16 g ai/ha
  Plant response rating, Sedge, Umbrella: 30
[4]; 32 g ai/ha
  Flatsedge, Rice plant response rating: 0
[4]; 64 g ai/ha
  Flatsedge, Rice plant response rating: 0
[4]; 125 g ai/ha
  Flatsedge, Rice plant response rating: 75
[4]; 250 g ai/ha
  Flatsedge, Rice plant response rating: 90
[4]; 16 g ai/ha
  Plant response rating, Flatsedge, Rice: 0
[5]; 64 g ai/ha
  Barnyardgrass plant response rating: 0
[5]; 125 g ai/ha
  Barnyardgrass plant response rating: 0
[5]; 250 g ai/ha
  Barnyardgrass plant response rating: 0
[5]; 16 g ai/ha
  Plant response rating, Barnyardgrass: 0
[6]; 32 g ai/ha
  Rice, Transplanted plant response rating: 0
[6]; 64 g ai/ha
  Rice, Transplanted plant response rating: 0
[6]; 125 g ai/ha
  Rice, Transplanted plant response rating: 0
[6]; 250 g ai/ha
  Rice, Transplanted plant response rating: 0
[6]; 16 g ai/ha
  Plant response rating, Rice, Transplanted: 0
[7]; 32 g ai/ha
  Ducksalad plant response rating: 100
[7]; 64 g ai/ha
  Ducksalad plant response rating: 100
[7]; 125 g ai/ha
  Ducksalad plant response rating: 100
[7]; 250 g ai/ha
  Ducksalad plant response rating: 100
[7]; 16 g ai/ha
  Plant response rating, Ducksalad: 80
[8]; 32 g ai/ha
  Watergrass, Late plant response rating: 0
[8]; 64 g ai/ha
  Watergrass, Late plant response rating: 0
[8]; 125 g ai/ha
  Watergrass, Late plant response rating: 0
[8]; 250 g ai/ha
  Watergrass, Late plant response rating: 0
[8]; 16 g ai/ha
  Plant response rating, Watergrass, Late: 0
[9]; 32 g ai/ha
  Redstem plant response rating: 0
[9]; 64 g ai/ha
  Redstem plant response rating: 30
[9]; 125 g ai/ha
  Redstem plant response rating: 40
[9]; 250 g ai/ha
  Redstem plant response rating: 80
[9]; 16 g ai/ha
  Plant response rating, Redstem: 0
[10]; 32 g ai/ha
  Sprangletop, Brdd. plant response rating: 0
[10]; 64 g ai/ha
  Sprangletop, Brdd. plant response rating: 0
[10]; 125 g ai/ha
  Sprangletop, Brdd. plant response rating: 0
[10]; 250 g ai/ha
  Sprangletop, Brdd. plant response rating: 0
[10]; 16 g ai/ha
  Plant response rating, Sprangletop, Brdd.: 0
[11]; 32 g ai/ha
  Junglerice plant response rating: 0
[11]; 64 g ai/ha
  Junglerice plant response rating: 0
[11]; 125 g ai/ha
  Junglerice plant response rating: 0
[11]; 250 g ai/ha
  Junglerice plant response rating: 0
[11]; 16 g ai/ha
  Plant response rating, Junglerice: 0
[1]; 62 g ai/ha
  Plant response rating, Sedge, Umbrella: 85
[1]; 125 g ai/ha
  Plant response rating, Sedge, Umbrella: 85
[1]; 250 g ai/ha
  Plant response rating, Sedge, Umbrella: 90
[1]; 500 g ai/ha
  Plant response rating, Sedge, Umbrella: 95

## CCOC(=O)c1nc(C2CC2)nc(N)c1Cl [Compound 4, ethyl 6-amino-5-chloro-2-cyclopropyl-4-pyrimidinecarboxylate]
[1]; 62 g ai/ha
  Plant response rating, Sedge, Umbrella: 0
[1]; 125 g ai/ha
  Plant response rating, Sedge, Umbrella: 30
[1]; 250 g ai/ha
  Plant response rating, Sedge, Umbrella: 65
[1]; 500 g ai/ha
  Plant response rating, Sedge, Umbrella: 75
